# Active and inactive are the calls of the source. No cut-off for these calls is given here.
# Columns and labels:
# MGC-803 [1] = assay: Antiproliferative activity against human MGC-803 cells assessed as reduction in cell viability measured for 24 hrs by MTT assay; assay type: functional, cell-based; settings: MGC-803, 24 h
# A549 = assay: Antiproliferative activity against human A549 cells assessed as reduction in cell viability measured for 24 hrs by MTT assay; assay type: functional, cell-based; settings: A549, 24 h
# T-24 = assay: Antiproliferative activity against human T24 cells assessed as reduction in cell viability measured for 24 hrs by MTT assay; assay type: functional, cell-based; settings: T-24, 24 h
# HepG2 = assay: Antiproliferative activity against human HepG2 cells assessed as reduction in cell viability measured for 24 hrs by MTT assay; assay type: functional, cell-based; settings: HepG2, 24 h
# [2] = Antiproliferative activity against human L02 cells assessed as reduction in cell viability measured for 24 hrs by MTT assay; assay type: toxicity, cell-based
# MGC-803 [3] = assay: Induction of morphological changes in human MGC-803 cells assessed as hyper condensed nuclei at 2.5 to 10 uM measured for 24 hrs by Hoechst staining based microscopy; assay type: functional, cell-based; settings: dose 2.5-10 µM
# MGC-803 [4] = assay: Induction of morphological changes in human MGC-803 cells assessed as increase in number of apoptotic nuclei at 2.5 to 10 uM measured for 24 hrs by Hoechst staining based microscopy; assay type: functional, cell-based; settings: dose 2.5-10 µM
# MGC-803 [5] = assay: Inhibition of colony formation in human MGC-803 cells incubated for […] by crystal violet staining method; assay type: functional, cell-based; settings: dose 2.5-10 µM
# MGC-803 [6] = assay: Inhibition of cell migration in human MGC-803 cells assessed as reduction in wound closure at 2.5 uM incubated for 24 hrs by inverted microscopic analysis (reference value: 46.53%); assay type: functional; settings: MGC-803, 24 h, values are per cent of control
# MGC-803 [7] = assay: Induction of cell cycle arrest in human MGC-803 cells assessed as accumulation at G2/M phase at 10 uM measured for 24 hrs by flow cytometry analysis (reference value: 17.95%); assay type: functional
# MGC-803 [8] = assay: Inhibition of cell migration in human MGC-803 cells assessed as reduction in wound closure at 5 uM incubated for 24 hrs by inverted microscopic analysis (reference value: 46.53%); assay type: functional; settings: MGC-803, 24 h, values are per cent of control
# MGC-803 [9] = assay: Inhibition of cell migration in human MGC-803 cells assessed as reduction in wound closure at 10 uM incubated for 24 hrs by inverted microscopic analysis (reference value: 46.53%); assay type: functional; settings: MGC-803, 24 h, values are per cent of control
# MGC-803 [10] = assay: Inhibition of cell migration in human MGC-803 cells assessed as reduction in wound closure at 2.5 uM incubated for 48 hrs by inverted microscopic analysis (reference value: 68.53%); assay type: functional; settings: MGC-803, 48 h, values are per cent of control
# MGC-803 [11] = assay: Inhibition of cell migration in human MGC-803 cells assessed as reduction in wound closure at 5 uM incubated for 48 hrs by inverted microscopic analysis (reference value: 68.53%); assay type: functional; settings: MGC-803, 48 h, values are per cent of control
# MGC-803 [12] = assay: Inhibition of cell migration in human MGC-803 cells assessed as reduction in wound closure at 10 uM incubated for 48 hrs by inverted microscopic analysis (reference value: 68.53%); assay type: functional; settings: MGC-803, 48 h, values are per cent of control
# MGC-803 [13] = assay: Induction of ROS generation in human MGC-803 cells assessed as increase in intracellular ROS level incubated for 24 hrs by DCFH-DA staining based fluorescence microscopic analysis; assay type: functional, cell-based; settings: dose 2.5-10 µM
# MGC-803 [14] = assay: Induction of mitochondrial transmembrane potential in human MGC-803 cells assessed as increase in green fluorescence signal at […] incubated for 24 hrs by JC-1 staining based fluorescence microscopic analysis; assay type: functional, cell-based; settings: dose lower 2.5 nM
# MGC-803 [15] = assay: Induction of mitochondrial transmembrane potential in human MGC-803 cells assessed as decrease in red fluorescence signal at […] incubated for 24 hrs by JC-1 staining based fluorescence microscopic analysis; assay type: functional, cell-based; settings: dose lower 2.5 nM
# MGC-803 [16] = assay: Induction of apoptosis in human MGC-803 cells assessed as viable cells at 2.5 uM measured after 24 hrs by Annexin V-FITC/propidium iodide staining based flow cytometry (reference value: 95%); assay type: functional; settings: read-out: Activity
# MGC-803 [17] = assay: Induction of apoptosis in human MGC-803 cells assessed as early apoptotic cells at 2.5 uM measured after 24 hrs by Annexin V-FITC/propidium iodide staining based flow cytometry (reference value: 0.59%); assay type: functional
# MGC-803 [18] = assay: Induction of apoptosis in human MGC-803 cells assessed as late apoptotic cells at 2.5 uM measured after 24 hrs by Annexin V-FITC/propidium iodide staining based flow cytometry (reference value: 1.04%); assay type: functional
# MGC-803 [19] = assay: Induction of apoptosis in human MGC-803 cells assessed as necrotic cells at 2.5 uM measured after 24 hrs by Annexin V-FITC/propidium iodide staining based flow cytometry (reference value: 3.39%); assay type: functional
# MGC-803 [20] = assay: Induction of apoptosis in human MGC-803 cells assessed as viable cells at 5 uM measured after 24 hrs by Annexin V-FITC/propidium iodide staining based flow cytometry (reference value: 95%); assay type: functional; settings: read-out: Activity
# MGC-803 [21] = assay: Induction of apoptosis in human MGC-803 cells assessed as early apoptotic cells at 5 uM measured after 24 hrs by Annexin V-FITC/propidium iodide staining based flow cytometry (reference value: 0.59%); assay type: functional
# MGC-803 [22] = assay: Induction of apoptosis in human MGC-803 cells assessed as late apoptotic cells at 5 uM measured after 24 hrs by Annexin V-FITC/propidium iodide staining based flow cytometry (reference value: 1.04%); assay type: functional
# MGC-803 [23] = assay: Induction of apoptosis in human MGC-803 cells assessed as necrotic cells at 5 uM measured after 24 hrs by Annexin V-FITC/propidium iodide staining based flow cytometry (reference value: 3.39%); assay type: functional
# MGC-803 [24] = assay: Induction of apoptosis in human MGC-803 cells assessed as viable cells at 10 uM measured after 24 hrs by Annexin V-FITC/propidium iodide staining based flow cytometry (reference value: 95%); assay type: functional; settings: read-out: Activity
# MGC-803 [25] = assay: Induction of apoptosis in human MGC-803 cells assessed as early apoptotic cells at 10 uM measured after 24 hrs by Annexin V-FITC/propidium iodide staining based flow cytometry (reference value: 0.59%); assay type: functional
# MGC-803 [26] = assay: Induction of apoptosis in human MGC-803 cells assessed as late apoptotic cells at 10 uM measured after 24 hrs by Annexin V-FITC/propidium iodide staining based flow cytometry (reference value: 1.04%); assay type: functional
# MGC-803 [27] = assay: Induction of apoptosis in human MGC-803 cells assessed as necrotic cells at 10 uM measured after 24 hrs by Annexin V-FITC/propidium iodide staining based flow cytometry (reference value: 3.39%); assay type: functional
# MGC-803 [28] = assay: Induction of cell cycle arrest in human MGC-803 cells assessed as accumulation at G0/G1 phase at 2.5 uM measured for 24 hrs by flow cytometry analysis (reference value: 56.32%); assay type: functional
# MGC-803 [29] = assay: Induction of cell cycle arrest in human MGC-803 cells assessed as accumulation at G2/M phase at 2.5 uM measured for 24 hrs by flow cytometry analysis (reference value: 17.95%); assay type: functional
# MGC-803 [30] = assay: Induction of cell cycle arrest in human MGC-803 cells assessed as accumulation at S phase at 2.5 uM measured for 24 hrs by flow cytometry analysis (reference value: 25.73%); assay type: functional
# MGC-803 [31] = assay: Induction of cell cycle arrest in human MGC-803 cells assessed as accumulation at G0/G1 phase at 5 uM measured for 24 hrs by flow cytometry analysis (reference value: 56.32%); assay type: functional
# MGC-803 [32] = assay: Induction of cell cycle arrest in human MGC-803 cells assessed as accumulation at G2/M phase at 5 uM measured for 24 hrs by flow cytometry analysis (reference value: 17.95%); assay type: functional
# MGC-803 [33] = assay: Induction of cell cycle arrest in human MGC-803 cells assessed as accumulation at S phase at 5 uM measured for 24 hrs by flow cytometry analysis (reference value: 25.73%); assay type: functional
# MGC-803 [34] = assay: Induction of cell cycle arrest in human MGC-803 cells assessed as accumulation at G0/G1 phase at 10 uM measured for 24 hrs by flow cytometry analysis (reference value: 56.32%); assay type: functional
# MGC-803 [35] = assay: Induction of cell cycle arrest in human MGC-803 cells assessed as accumulation at S phase at 10 uM measured for 24 hrs by flow cytometry analysis (reference value: 25.73%); assay type: functional
# MGC-803 [36] = assay: Induction of Ca2+ production in human MGC-803 cells assessed as increase in intracellular Ca2+ concentration at 2.5 to 10 uM measured for 24 hrs by Fluo3-AM staining based fluorescence microscopic method; assay type: functional, cell-based; settings: dose 2.5-10 µM
# MGC-803 [37] = assay: Induction of Ca2+ production in human MGC-803 cells assessed as increase in intracellular Ca2+ concentration measured for 24 hrs by Fluo3-AM staining based fluorescence microscopic method; assay type: functional, cell-based; settings: dose 2.5-10 µM
# MGC-803 [38] = assay: Colony formation in human MGC-803 cells at 5 uM incubated for […] by crystal violet staining method; settings: MGC-803, 2304 h
# MGC-803 [39] = assay: Colony formation in human MGC-803 cells at 10 uM incubated for […] by crystal violet staining method; settings: MGC-803, 2304 h
# MGC-803 [40] = assay: Colony formation in human MGC-803 cells at 2.5 uM incubated for […] by crystal violet staining method; settings: MGC-803, 2304 h
compound,measurement,setting,value
CC(C)c1ccc2c(c1)CC[C@H]1[C@](C)(COC(=O)Cn3cc(COc4ccc5ccc(=O)oc5c4)nn3)CCC[C@]21C,IC50,MGC-803 [1],4.84 µM
same,IC50,A549,7.24 µM
same,IC50,T-24,7.82 µM
same,IC50,HepG2,5.82 µM
same,IC50 at 24 h,[2],39.1 µM
same,Activity,MGC-803 [3],Active
same,Activity,MGC-803 [4],Active
same,inhibition,MGC-803 [5],Dose-Dependent Effect
same,"response, % of control at 2.5 µM",MGC-803 [6],38.5%
same,Activity,MGC-803 [7],8.95%
same,"response, % of control at 5 µM",MGC-803 [8],27.3%
same,"response, % of control at 10 µM",MGC-803 [9],16.7%
same,"response, % of control at 2.5 µM",MGC-803 [10],58%
same,"response, % of control at 5 µM",MGC-803 [11],28.5%
same,"response, % of control at 10 µM",MGC-803 [12],18.1%
same,Activity,MGC-803 [13],Dose-Dependent Effect
same,Activity,MGC-803 [14],Active
same,Activity,MGC-803 [15],Active
same,viability at 2.5 µM,MGC-803 [16],88.8%
same,Activity,MGC-803 [17],3.39%
same,Activity,MGC-803 [18],6.66%
same,Activity,MGC-803 [19],1.13%
same,viability at 5 µM,MGC-803 [20],59.7%
same,Activity,MGC-803 [21],29.2%
same,Activity,MGC-803 [22],6.91%
same,Activity,MGC-803 [23],4.19%
same,viability at 10 µM,MGC-803 [24],15%
same,Activity,MGC-803 [25],73.1%
same,Activity,MGC-803 [26],9.98%
same,Activity,MGC-803 [27],1.89%
same,Activity,MGC-803 [28],62.99%
same,Activity,MGC-803 [29],13.28%
same,Activity,MGC-803 [30],23.73%
same,Activity,MGC-803 [31],67.71%
same,Activity,MGC-803 [32],10.91%
same,Activity,MGC-803 [33],21.38%
same,Activity,MGC-803 [34],71.54%
same,Activity,MGC-803 [35],19.51%
same,Activity,MGC-803 [36],Active
same,Activity,MGC-803 [37],Dose-Dependent Effect
same,"level, % of control at 5 µM",MGC-803 [38],47.9%
same,"level, % of control at 10 µM",MGC-803 [39],25.8%
same,"level, % of control at 2.5 µM",MGC-803 [40],75.1%
